According to ChEMBL document CHEMBL1781873, “Synthesis and antibacterial property of pyrrolopyrano quinolinones and pyrroloquinolines” (2011):
Active and inactive are the calls of the source. No cut-off for these calls is given here.

Columns and labels:
[1] = test system: Pseudomonas aeruginosa; assay: Antibacterial activity against Pseudomonas aeruginosa at 20 ug after 24 hrs by disc diffusion assay; format: functional; details: read-out: IZ
[2] = test system: Escherichia coli; assay: Inhibition of Escherichia coli DNA gyrase -mediated DNA relaxation using pBR322 DNA as substrate at […] after 1 hrs by agarose gel electrophoresis
[3] = test system: Klebsiella pneumoniae; assay: Antibacterial activity against Klebsiella pneumoniae at 5 ug after 24 hrs by disc diffusion assay; format: functional; details: read-out: IZ
[4] = test system: Escherichia coli; assay: Antibacterial activity against Escherichia coli at 10 ug after 24 hrs by disc diffusion assay; format: functional; details: read-out: IZ
[5] = test system: Salmonella typhi; assay: Antibacterial activity against Salmonella typhi at 10 ug after 24 hrs by disc diffusion assay; format: functional, Salmonella enterica subsp. enterica serovar Typhi; details: Salmonella enterica, read-out: IZ
[6] = test system: Klebsiella pneumoniae; assay: Antibacterial activity against Klebsiella pneumoniae after 18 to 20 hrs by broth micro dilution assay; format: functional
[7] = test system: Klebsiella pneumoniae; assay: Antibacterial activity against Klebsiella pneumoniae at 20 ug after 24 hrs by disc diffusion assay; format: functional; details: read-out: IZ
[8] = test system: Escherichia coli; assay: Inhibition of Escherichia coli DNA gyrase assessed as inhibition of DNA supercoiling activity using pBR322 DNA as substrate at […] after 3 hrs by agarose gel electrophoresis
[9] = test system: Salmonella typhi; assay: Antibacterial activity against Salmonella typhi at 25 ug after 24 hrs by disc diffusion assay; format: functional, Salmonella enterica subsp. enterica serovar Typhi; details: Salmonella enterica, read-out: IZ
[10] = test system: Escherichia coli; assay: Antibacterial activity against Escherichia coli at 15 ug after 24 hrs by disc diffusion assay; format: functional; details: read-out: IZ
[11] = test system: Klebsiella pneumoniae; assay: Antibacterial activity against Klebsiella pneumoniae at 10 ug after 24 hrs by disc diffusion assay; format: functional; details: read-out: IZ
[12] = test system: Staphylococcus aureus; assay: Antibacterial activity against Staphylococcus aureus at 5 ug after 24 hrs by disc diffusion assay; format: functional; details: read-out: IZ
[13] = test system: Staphylococcus aureus; assay: Antibacterial activity against Staphylococcus aureus at 10 ug after 24 hrs by disc diffusion assay; format: functional; details: read-out: IZ
[14] = test system: Salmonella typhi; assay: Antibacterial activity against Salmonella typhi at 15 ug after 24 hrs by disc diffusion assay; format: functional, Salmonella enterica subsp. enterica serovar Typhi; details: Salmonella enterica, read-out: IZ
[15] = test system: Bacillus subtilis; assay: Antibacterial activity against Bacillus subtilis after 18 to 20 hrs by broth micro dilution assay; format: functional
[16] = test system: Escherichia coli; assay: Antibacterial activity against Escherichia coli at 20 ug after 24 hrs by disc diffusion assay; format: functional; details: read-out: IZ
[17] = test system: Klebsiella pneumoniae; assay: Antibacterial activity against Klebsiella pneumoniae at 15 ug after 24 hrs by disc diffusion assay; format: functional; details: read-out: IZ
[18] = test system: Staphylococcus aureus; assay: Antibacterial activity against Staphylococcus aureus at 15 ug after 24 hrs by disc diffusion assay; format: functional; details: read-out: IZ
[19] = test system: Escherichia coli; assay: Inhibition of DNA gyrase mRNA expression in Escherichia coli measured up to 24 hrs by RT-PCR; format: functional, organism-based
[20] = test system: Salmonella typhi; assay: Antibacterial activity against Salmonella typhi at 5 ug after 24 hrs by disc diffusion assay; format: functional, Salmonella enterica subsp. enterica serovar Typhi; details: Salmonella enterica, read-out: IZ
[21] = test system: Staphylococcus aureus; assay: Antibacterial activity against Staphylococcus aureus at 25 ug after 24 hrs by disc diffusion assay; format: functional; details: read-out: IZ
[22] = test system: Pseudomonas aeruginosa; assay: Antibacterial activity against Pseudomonas aeruginosa at 15 ug after 24 hrs by disc diffusion assay; format: functional; details: read-out: IZ
[23] = test system: Pseudomonas aeruginosa; assay: Antibacterial activity against Pseudomonas aeruginosa at 10 ug after 24 hrs by disc diffusion assay; format: functional; details: read-out: IZ
[24] = test system: Bacillus subtilis; assay: Antibacterial activity against Bacillus subtilis at 15 ug after 24 hrs by disc diffusion assay; format: functional; details: read-out: IZ
[25] = test system: Staphylococcus aureus; assay: Antibacterial activity against Staphylococcus aureus after 18 to 20 hrs by broth micro dilution assay; format: functional
[26] = test system: Bacillus subtilis; assay: Antibacterial activity against Bacillus subtilis at 20 ug after 24 hrs by disc diffusion assay; format: functional; details: read-out: IZ
[27] = test system: Salmonella typhi; assay: Antibacterial activity against Salmonella typhi at 20 ug after 24 hrs by disc diffusion assay; format: functional, Salmonella enterica subsp. enterica serovar Typhi; details: Salmonella enterica, read-out: IZ
[28] = test system: Pseudomonas aeruginosa; assay: Antibacterial activity against Pseudomonas aeruginosa at 25 ug after 24 hrs by disc diffusion assay; format: functional; details: read-out: IZ
[29] = test system: Escherichia coli; assay: Antibacterial activity against Escherichia coli at 25 ug after 24 hrs by disc diffusion assay; format: functional; details: read-out: IZ
[30] = test system: Salmonella typhi; assay: Antibacterial activity against Salmonella typhi after 18 to 20 hrs by broth micro dilution assay; format: functional, Salmonella enterica subsp. enterica serovar Typhi; details: Salmonella enterica
[31] = test system: Pseudomonas aeruginosa; assay: Antibacterial activity against Pseudomonas aeruginosa at 5 ug after 24 hrs by disc diffusion assay; format: functional; details: read-out: IZ
[32] = test system: Pseudomonas aeruginosa; assay: Antibacterial activity against Pseudomonas aeruginosa after 18 to 20 hrs by broth micro dilution assay; format: functional
[33] = test system: Escherichia coli; assay: Antibacterial activity against Escherichia coli at 5 ug after 24 hrs by disc diffusion assay; format: functional; details: read-out: IZ
[34] = test system: Escherichia coli; assay: Antibacterial activity against Escherichia coli after 18 to 20 hrs by broth micro dilution assay; format: functional
[35] = test system: Bacillus subtilis; assay: Antibacterial activity against Bacillus subtilis at 25 ug after 24 hrs by disc diffusion assay; format: functional; details: read-out: IZ
[36] = test system: Klebsiella pneumoniae; assay: Antibacterial activity against Klebsiella pneumoniae at 25 ug after 24 hrs by disc diffusion assay; format: functional; details: read-out: IZ
[37] = test system: Staphylococcus aureus; assay: Antibacterial activity against Staphylococcus aureus at 20 ug after 24 hrs by disc diffusion assay; format: functional; details: read-out: IZ

For `CCC1[C@H]2c3c(n(C)c4ccccc4c3=O)OC(c3ccccc3)[C@@H]2CN1OS(=O)(=O)c1ccc(C)cc1` (mixture of isomers), the zone of inhibition at 20 µg/disc [1] was 20 mm, the inhibition [2] was “Active” and the zone of inhibition at 5 µg/disc [3] was 20 mm. It also gave a zone of inhibition at 10 µg/disc [4] of 14 mm, a zone of inhibition at 10 µg/disc [5] of 16 mm and an MIC50 [6] of 128 µg/mL. The MIC90 [6] was 128 µg/mL, the zone of inhibition at 20 µg/disc [7] was 34 mm and the “DNA gyrase inhibition (active/inactive)” value [8] was “Active”. For the same compound, the zone of inhibition at 25 µg/disc [9] was 24 mm, the zone of inhibition at 15 µg/disc [10] was 16 mm and the zone of inhibition at 10 µg/disc [11] was 26 mm. The zone of inhibition at 5 µg/disc [12] was 20 mm, the zone of inhibition at 10 µg/disc [13] was 24 mm and the zone of inhibition at 15 µg/disc [14] was 18 mm. The MIC50 [15] was 128 µg/mL, the MIC90 [15] was 128 µg/mL and the zone of inhibition at 20 µg/disc [16] was 22 mm. The zone of inhibition at 15 µg/disc [17] was 30 mm, the zone of inhibition at 15 µg/disc [18] was 26 mm and the “inhibition of gyrase mRNA expression (active/not active)” value [19] was “Active”. For the same compound, the zone of inhibition at 5 µg/disc [20] was 10 mm, the zone of inhibition at 25 µg/disc [21] was 36 mm and the zone of inhibition at 15 µg/disc [22] was 16 mm. It also gave a zone of inhibition at 10 µg/disc [23] of 14 mm, a zone of inhibition at 15 µg/disc [24] of 6 mm and an MIC50 [25] of 128 µg/mL. It also gave an MIC90 [25] of 128 µg/mL, a zone of inhibition at 20 µg/disc [26] of 7 mm and a zone of inhibition at 20 µg/disc [27] of 22 mm. For the same compound, the zone of inhibition at 25 µg/disc [28] was 23 mm, the zone of inhibition at 25 µg/disc [29] was 23 mm and the MIC50 [30] was 128 µg/mL. The MIC90 [30] was 128 µg/mL, the zone of inhibition at 5 µg/disc [31] was 10 mm and the MIC50 [32] was 128 µg/mL. For the same compound, the MIC90 [32] was 128 µg/mL, the zone of inhibition at 5 µg/disc [33] was 12 mm and the MIC50 [34] was 128 µg/mL. The MIC90 [34] was 128 µg/mL, the zone of inhibition at 25 µg/disc [35] was 9 mm and the zone of inhibition at 25 µg/disc [36] was 36 mm. It also gave a zone of inhibition at 20 µg/disc [37] of 30 mm.
